Assay results: patent US20260070927A1, “INDAZOLE MACROCYCLES FOR THE TREATMENT OF AUTOIMMUNE DISEASE” (Hoffmann-La Roche Inc., priority 2022, published 2026)

What was measured:
[1] = molecular target: human stimulator of interferon genes (STING) (139-379) (Homo sapiens (Human), UniProt Q86WV6); experiment: Microliter plate-based TR-FRET competition-binding assay for binders of STING; settings: Alexa488 probe, read-out: FRET_IC50
Description: This is the competition-binding assay to test the compounds' potency to the C-terminal Domain (CTD) and ligand-binding domain of human stimulator of interferon genes (STING). STING (139-379, Q86WV6, http://www.uniprot.org/uniprot) recombinant protein (in 20 mM Tris, 150 mM NaCl, pH 8.0, and expression in Escherichia coli (E. coli) BL21 (DE3)) with a C-terminal flag-tag was employed for the assay. When Alexa-488 labeled active site probe (refer to patent WO2017/175156 A1) bounds to STING (139-379), it accepts the 485 nm emission from Tb-M2-Flag-STING and results in an increase in fluorescence at 520 nm. Compounds that compete for the probe-binding site will reduce 520 nm signal. The assay was run in proxiplate-384 plus (PerkinElmer, cat: 60150300) containing of 2.5 nM STING, 2.5 nM M2-Tb (Cisbio, 61FG2TLA, Lot: 17 A) and 250 nM Alexa488 probe. Plates were centrifuged for 1 min at 1000 rpm, incubated for 30 min at room temperature, and then measured the dual fluorescence emission at 520 nm/485 nM following 320 nm laser excitation on an Envision plate reader (Perkin-Elmer). The compounds' effect on the STING binding is detected by measuring ratiometric fluorescence from time-resolved FRET. The percentage of inhibition of at each compound concentration is calculated on the basis of their changes of TR-FRET efficiency relative to the change of TR-FRET caused by positive control 2′3′cGAMP (Sigma, cat: SML1229).

[2] = test system: STING (IFN-β in hPBMC); experiment: hPBMC cytokine functional assay (IFN-β decrease after Baculovirus stimulation); format: cell-based; settings: Homo sapiens, Baculovirus MOI 40, 24 hours, read-out: hPBMC_IC50
Description: The inhibition of STING by compounds could be measured by the decrease of IFN-β in hPBMC, which is stimulated by a double stranded DNA virus Baculoviurs (Purchased from Genescript, pCMV-Dest Vector virus generation P2 BV stock virus, Sf-900 II medium with 5% FBS, Lot C9835DK230-2/P4DL001). Frozen hPBMC cells (purchased from Stemcell Technologies, cat number is 70025, Lot 191070803C) were thawed at 37° C. water bath, then cells were re-suspended in 50 ml tube using 20 ml Cell culture medium, and then centrifuged for 5 min at 2000 rpm before the supernatant was removed carefully. The cells were re-suspended in culture medium (RPMI-1640 with 1.5 g/L NaHCO3, 4.5 g/L glucose, 10 mM HEPES and 1 mM Na-pyruvate, 10% HI-FBS); 65 μL of the cell suspension was dispensed into 384 well plate (70K cells/well) by Multidrop Combi with at least 3 hours incubation at 37° C., 5% CO2 cell incubator.
Then 4 μL of compound solution per well (final 0.5% DMSO) was transferred by Agilent Bravo followed by infection with 11 μL of Baculovirus at a final MOI of 40. The level of IFN-β secreted in the supernatant of hPBMC was determined after 24 hours of incubation at 37° C. cell incubator by human IFN-β HTRF assay (Cisbio, cat: 62HIFNBPEH) following the manufacture's instruction. CellTiter-Glo kit (Promega, cat: G7573) was applied for the cell viability evaluation using Envision.

[3] = Metabolic (liver microsomal) stability assay; settings: human liver microsomes, 1 μM test compound
Description: The liver microsomal stability assay is used for early assessment of metabolic stability of a test compound in liver microsomes.
Liver microsomes were preincubated with test compound for 10 minutes at 37° C. in 100 mM potassium phosphate buffer, pH 7.4. The reactions were initiated by adding NADPH regenerating system. The final incubation mixtures contained 1 μM test compound, 0.5 mg/mL liver microsomal protein, 1 mM MgCl2, 1 mM NADP, 1 unit/mL isocitric dehydrogenase and 6 mM isocitric acid in 100 mM potassium phosphate buffer, pH 7.4. After incubation times of 0, 3, 6, 9, 15 and 30 minutes at 37° C., 300 μL of cold acetonitrile (including internal standard) was added to 100 μL incubation mixture to terminate the reaction. Following precipitation and centrifugation, the amount of compound remaining in the samples were determined by LC-MS/MS. Controls of no NADPH regenerating system at zero and 30 minutes were also prepared and analyzed.

Chain of human stimulator of interferon genes (STING) (139-379) (Q86WV6 139-379): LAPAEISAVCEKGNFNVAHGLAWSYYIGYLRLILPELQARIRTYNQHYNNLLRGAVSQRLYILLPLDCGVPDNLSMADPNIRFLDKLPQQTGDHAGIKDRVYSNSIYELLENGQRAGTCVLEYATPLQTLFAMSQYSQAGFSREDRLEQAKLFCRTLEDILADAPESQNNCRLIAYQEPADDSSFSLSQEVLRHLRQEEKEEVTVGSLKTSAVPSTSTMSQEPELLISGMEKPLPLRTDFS

Row | Compound | IC50 [1] [nM] | IC50 [2] [nM] | Clearance of human microsome [3] [mL/min/kg]
1 | COc1cc(F)ccc1-n1ncc2c(N3C[C@@H]4C[C@H]3C(=O)N(C)CCCc3c5c(cc(F)cc5nn3C)-c3ccnc(n3)O4)ncnc21 [Example 12, (8S,11S)-22-fluoro-10-[1-(4-fluoro-2-methoxy-phenyl)pyrazolo[3,4-d]pyrimidin-4-yl]-13,18-dimethyl-7-oxa-5,10,13,18,19,26-hexazapentacyclo[15.6.1.1^2,6.1^8,11.0^20,24]hexacosa-1(23),2(26),3,5,17(24),19,21-heptaen-12-one] | 18 | 1410 | 13.2
2 | Cn1cnc(CN2CCCc3c4c(cccc4nn3C)-c3cccc(c3)O[C@H]3C[C@@H](C2=O)N(c2ncnc4c2cnn4-c2ccc(F)cc2F)C3)n1 [Example 16, (8S,11S)-10-[1-(2,4-difluorophenyl)pyrazolo[3,4-d]pyrimidin-4-yl]-18-methyl-13-[(1-methyl-1,2,4-triazol-3-yl)methyl]-7-oxa-10,13,18,19 tetrazapentacyclo[15.6.1.1^2,6.1^8,11.0^20,24]hexacosa-1(23),2(26),3,5,17(24),19,21-heptaen-12-one] | 3.1 | 384 | 15.9
3 | Cn1nc2cccc3c2c1CCCN(CC1CC1)C(=O)[C@@H]1C[C@@H](CN1c1ncnc2c1cnn2-c1ccc(F)cc1F)Oc1cc-3ncn1 [Example 18, (8S,11S)-13-(cyclopropylmethyl)-10-[1-(2,4-difluorophenyl)pyrazolo[3,4-d]pyrimidin-4-yl]-18-methyl-7-oxa-3,5,10,13,18,19-hexazapentacyclo[15.6.1.1^2,6.1^8,11.0^20,24]hexacosa-1(23),2(26),3,5,17(24),19,21-heptaen-12-one] | 12.5 | 491 | 12.4
4 | Cn1nc2cccc3c2c1CCCN(CC1CC1)C(=O)[C@@H]1C[C@@H](CN1c1ncnc2c1cnn2-c1ccc(F)cc1F)Oc1nccc-3n1 [Example 19, (8S,11S)-13-(cyclopropylmethyl)-10-[1-(2,4-difluorophenyl)pyrazolo[3,4-d]pyrimidin-4-yl]-18-methyl-7-oxa-5,10,13,18,19,26-hexazapentacyclo[15.6.1.1^2,6.1^8,11.0^20,24]hexacosa-1(23),2(26),3,5,17(24),19,21-heptaen-12-one] | 13.1 | 976 | 10.0
5 | Cn1nc2cccc3c2c1CCCN(CCO)C(=O)[C@@H]1C[C@@H](CN1c1ncnc2c1cnn2-c1ccc(F)cc1F)Oc1cccc-3c1 [Example 22, (8S,11S)-10-[1-(2,4-difluorophenyl)pyrazolo[3,4-d]pyrimidin-4-yl]-13-(2-hydroxyethyl)-18-methyl-7-oxa-10,13,18,19-tetrazapentacyclo[15.6.1.1^2,6.1^8,11.0^20,24]hexacosa-1(23),2(26),3,5,17(24),19,21-heptaen-12-one] | 0.2 | 264 | 15.5
6 | CN(C)CCN1CCCc2c3c(cccc3nn2C)-c2cccc(c2)O[C@H]2C[C@@H](C1=O)N(c1ncnc3c1cnn3-c1ccc(F)cc1F)C2 [Example 24, (8S,11S)-10-[1-(2,4-difluorophenyl)pyrazolo[3,4-d]pyrimidin-4-yl]-13-[2-(dimethylamino)ethyl]-18-methyl-7-oxa-10,13,18,19-tetrazapentacyclo[15.6.1.1^2,6.1^8,11.0^20,24]hexacosa-1(23),2(26),3,5,17(24),19,21-heptaen-12-one] | 8.2 | 711 | 14.9
7 | Cn1nc2cccc3c2c1CCCN(CCCN1CC2(COC2)C1)C(=O)[C@@H]1C[C@@H](CN1c1ncnc2c1cnn2-c1ccc(F)cc1F)Oc1cccc-3c1 [Example 31, (8S,11S)-10-[1-(2,4-difluorophenyl)pyrazolo[3,4-d]pyrimidin-4-yl]-18-methyl-13-[3-(2-oxa-6-azaspiro[3.3]heptan-6-yl)propyl]-7-oxa-10,13,18,19-tetrazapentacyclo[15.6.1.1^2,6.1^8,11.0^20,24]hexacosa-1(23),2(26),3,5,17(24),19,21-heptaen-12-one] | 7.2 | 517 | 12.4
8 | CN1CCN(CCCN2CCCc3c4c(cccc4nn3C)-c3cccc(c3)O[C@H]3C[C@@H](C2=O)N(c2ncnc4c2cnn4-c2ccc(F)cc2F)C3)CC1 [Example 32, (8S,11S)-10-[1-(2,4-difluorophenyl)pyrazolo[3,4-d]pyrimidin-4-yl]-18-methyl-13-[3-(4-methylpiperazin-1-yl)propyl]-7-oxa-10,13,18,19-tetrazapentacyclo[15.6.1.1^2,6.1^8,11.0^20,24]hexacosa-1(23),2(26),3,5,17(24),19,21-heptaen-12-one] | 3.2 | 1100 | 11.5
9 | CN1CC2CC1CN2CCCN1CCCc2c3c(cccc3nn2C)-c2cccc(c2)O[C@H]2C[C@@H](C1=O)N(c1ncnc3c1cnn3-c1ccc(F)cc1F)C2 [Example 34, (8S,11S)-10-[1-(2,4-difluorophenyl)pyrazolo[3,4-d]pyrimidin-4-yl]-18-methyl-13-[3-(5-methyl-2,5-diazabicyclo[2.2.1]heptan-2-yl)propyl]-7-oxa-10,13,18,19-tetrazapentacyclo[15.6.1.1^2,6.1^8,11.0^20,24]hexacosa-1(23),2(26),3,5,17(24),19,21-heptaen-12-one] | 7 | 2490 | 6.1
10 | Cn1nc2cccc3c2c1CCCN(CCCn1cnnn1)C(=O)[C@@H]1C[C@@H](CN1c1ncnc2c1cnn2-c1ccc(F)cc1F)Oc1cccc-3c1 [Example 36, (8S,11S)-10-[1-(2,4-difluorophenyl)pyrazolo[3,4-d]pyrimidin-4-yl]-18-methyl-13-[3-(tetrazol-1-yl)propyl]-7-oxa-10,13,18,19-tetrazapentacyclo[15.6.1.1^2,6.1^8,11.0^20,24]hexacosa-1(23),2(26),3,5,17(24),19,21-heptaen-12-one] | 1.3 | 1570 | 11.9
11 | Cn1nc2cccc3c2c1CCCN(CCC(C)(C)O)C(=O)[C@@H]1C[C@@H](CN1c1ncnc2c1cnn2-c1ccc(F)cc1F)Oc1cccc-3c1 [Example 40, (8S,11S)-10-[1-(2,4-difluorophenyl)pyrazolo[3,4-d]pyrimidin-4-yl]-13-(3-hydroxy-3-methyl-butyl)-18-methyl-7-oxa-10,13,18,19-tetrazapentacyclo[15.6.1.1^2,6.1^8,11.0^20,24]hexacosa-1(23),2(26),3,5,17(24),19,21-heptaen-12-one] | 8.6 | 708 | 15.6
12 | Cn1nc2c(F)ccc3c2c1CCCN(CCCN1CCOCC1)C(=O)[C@@H]1C[C@@H](CN1c1ncnc2c1cnn2-c1ccc(F)cc1F)Nc1cccc-3n1 [Example 44, (8S,11S)-10-[1-(2,4-difluorophenyl)pyrazolo[3,4-d]pyrimidin-4-yl]-21-fluoro-18-methyl-13-(3-morpholinopropyl)-7,10,13,18,19,26-hexazapentacyclo[15.6.1.1^2,6.1^8,11.0^20,24]hexacosa-1(23),2(26),3,5,17(24),19,21-heptaen-12-one] | 6.3 | 321 | 15.8
